Data as given in US8084623B2, “Pyrrolidinyl and piperidinyl ketone derivatives and uses thereof” (Roche Palo Alto LLC, priority 2006, dated 2011).

Row | SMILES | melting point [°C]
1 | CCCC1(C(=O)c2cc(F)c(N)c(Cl)c2)CCNC1 (centres unmarked) | 65 to 67
2 | O=C(c1ccc2[nH]ncc2c1)C1(CC2CC2)CCCN1 (centres unmarked) | 291 to 292
3 | O=C(c1ccc2[nH]ncc2c1)C1(CC2CCCC2)CCCN1 (centres unmarked) | > 300
4 | CC(C)CC1(C(=O)c2cc(F)c(Cl)c(Cl)c2)CCNCC1 | 166 to 167
5 | CCCC1(C(=O)c2ccc(O)c(Cl)c2)CCCNC1 (centres unmarked) | 265.6 to 266.9
6 | CCCC1(C(=O)c2ccc(Cl)c(Cl)c2)CCN1 (centres unmarked) | 252.6 to 254
7 | CCCC1(C(=O)c2ccc(Cl)c(Cl)c2)CNC1 | 59 to 60
8 | COCC1(C(=O)c2ccc3[nH]ccc3c2)CCNC1 (centres unmarked) | 59.1 to 61
